Laboratory results published in ChEMBL document CHEMBL4364318, “Targeting multiple myeloma with natural polyphenols” (Eur J Med Chem, 2019).

Experiments:
RPMI-8226 = experiment: Induction of apoptosis in human RPMI8226 cells at 10 to 20 uM by TUNEL assay relative to control; type: functional
U-266 = experiment: Induction of nitric oxide production in human U266 cells; type: functional, cell-based

For `O=C(O[C@@H]1Cc2c(O)cc(O)cc2O[C@@H]1c1cc(O)c(O)c(O)c1)c1cc(O)c(O)c(O)c1` [EPIGALOCATECHIN GALLATE], the Activity (RPMI-8226) was >100% and the IC50 (U-266) was 23.2 µM.
